pIC50: −log10 of the molar value.
molecular target: T1, TNF-α (Homo sapiens, UniProt P01375); assay: TNF-α Induced HEK Blue Cellular Assay (secreted alkaline phosphatase expression, QUANTI-Blue); format: cell-based; conditions: HEK Blue TNFα reporter cells; TNF-α 100 μg/ml; 24 hrs at 37° C.; inhibition of secreted alkaline phosphatase; read-out: IC50 value
T1 construct: purchased R&D 210-TA-020/CF
Procedure: TNF-α Induced HEK Blue Cellular Assay
Test articles were diluted in DMSO and serially diluted into 384 well assay plate (Corning 3765), at final concentrations ranging from […] to 0.5 nM. HEK Blue™ TNFα reporter cells were added at a final density of 10,000 cell per well in assay media [DMEM (Gibco, cat #21063-029), 10% fetal bovine serum (ExcelBio, cat #FND500), 1% Penicillin-Streptomycin (Solarbio, cat #P1400-100]. TNF-α (R&D 210-TA-020/CF) was then added to the assay plate at a final concentration of […]. This plate was then incubated for 24 hrs at 37° C. and 5% CO2. Secreted alkaline phosphatase expression was then measured using QUANTI-Blue™ (Invivogen), according to manufacturer instructions and read on an Envision microplate reader at 620 nm.
Inhibition data for test compound over a range of concentration was plotted as percentage inhibition of the test compound (100%=maximum inhibition). IC50 values were determined after correcting for background [(sample read-mean of low control)/(mean of high control-mean of low control)] whereby the low control is DMSO without stimulation and high control is DMSO with stimulation. The IC50 is defined as the concentration of test compound which produces 50% inhibition and was quantified using the 4 parameter logistic equation to fit the data.

T1 sequence (P01375 77-233 limits assumed): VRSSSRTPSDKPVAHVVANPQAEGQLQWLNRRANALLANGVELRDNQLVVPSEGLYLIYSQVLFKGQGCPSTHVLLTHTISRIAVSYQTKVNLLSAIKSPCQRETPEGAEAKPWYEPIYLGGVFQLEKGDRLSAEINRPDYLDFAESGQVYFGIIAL

| pIC50 | Structure (SMILES) |
| --- | --- |
| > 7.00 | [2H]C([2H])([2H])N1C(=O)c2cccc(OC(F)F)c2[C@H]2C[C@@H]1c1nc3ccc(C#CCCC4CC4)cc3n12 (single isomer, unassigned) [Example 137] |
| > 7.00 | [2H]C([2H])([2H])N1C(=O)c2cccc(OC(F)F)c2[C@H]2C[C@@H]1c1nc3ccc(C#CCC(C)O)cc3n12 (single isomer, unassigned) [Example 139, (7R,14R)-1-(difluoromethoxy)-11-((R or S)-4-hydroxypent-1-yn-1-yl)-6-(methyl-d3)-6,7-dihydro-7,14-methanobenzo[f]benzo[4,5]imidazo[1,2-a][1,4]diazocin-5(14H)-one] |
| > 7.00 | [2H]C([2H])([2H])N1C(=O)c2cccc(OC(F)F)c2[C@H]2C[C@@H]1c1nc3ccc(C#CCC(C)O)cc3n12 (single isomer, unassigned) [Example 140, (7R,14R)-1-(difluoromethoxy)-11-((S or R)-4-hydroxypent-1-yn-1-yl)-6-(methyl-d3)-6,7-dihydro-7,14-methanobenzo[f]benzo[4,5]imidazo[1,2-a][1,4]diazocin-5(14H)-one] |
| > 7.00 | [2H]C([2H])([2H])N1C(=O)c2cccc(OC(F)F)c2[C@H]2C[C@@H]1c1nc3ccc(C#CCC(C)OC)cc3n12 (single isomer, unassigned) [Example 148, (7R,14R)-1-(difluoromethoxy)-11-((R or S)-4-methoxypent-1-yn-1-yl)-6-(methyl-d3)-6,7-dihydro-7,14-methanobenzo[f]benzo[4,5]imidazo[1,2-a][1,4]diazocin-5(14H)-one] |
| > 7.00 | [2H]C([2H])([2H])N1C(=O)c2cccc(OC(F)F)c2[C@H]2C[C@@H]1c1nc3ccc(C#CCC(C)OC)cc3n12 (single isomer, unassigned) [Example 149, (7R,14R)-1-(difluoromethoxy)-11-((S or R)-4-methoxypent-1-yn-1-yl)-6-(methyl-d3)-6,7-dihydro-7,14-methanobenzo[f]benzo[4,5]imidazo[1,2-a][1,4]diazocin-5(14H)-one] |
| 6.00 to 7.00 | [2H]C([2H])([2H])N1C(=O)c2cccc(OC(F)F)c2[C@H]2C[C@@H]1c1nc3ccc(C#CC(O)C(F)(F)F)cc3n12 (single isomer, unassigned) [Example 199, (7R,14R)-1-(difluoromethoxy)-6-(methyl-d3)-11-((R or S)-4,4,4-trifluoro-3-hydroxybut-1-yn-1-yl)-6,7-dihydro-7,14-methanobenzo[f]benzo[4,5]imidazo[1,2-a][1,4]diazocin-5(14H)-one] |
| 6.00 to 7.00 | [2H]C([2H])([2H])N1C(=O)c2cccc(OC(F)F)c2[C@H]2C[C@@H]1c1nc3ccc(C#CC(O)C(F)(F)F)cc3n12 (single isomer, unassigned) [Example 200, (7R,14R)-1-(difluoromethoxy)-6-(methyl-d3)-11-((S or R)-4,4,4-trifluoro-3-hydroxybut-1-yn-1-yl)-6,7-dihydro-7,14-methanobenzo[f]benzo[4,5]imidazo[1,2-a][1,4]diazocin-5(14H)-one] |
| 4.52 to 5.00 | [2H]C([2H])([2H])N1C(=O)c2cccc(OC(F)F)c2[C@H]2C[C@@H]1c1nc3ccc(C#CC(O)CC)cc3n12 (single isomer, unassigned) [Example 208, (7R,14R)-1-(difluoromethoxy)-11-((R or S)-3-hydroxypent-1-yn-1-yl)-6-(methyl-d3)-6,7-dihydro-7,14-methanobenzo[f]benzo[4,5]imidazo[1,2-a][1,4]diazocin-5(14H)-one] |
| 4.52 to 5.00 | [2H]C([2H])([2H])N1C(=O)c2cccc(OC(F)F)c2[C@H]2C[C@@H]1c1nc3ccc(C#CC(O)CC)cc3n12 (single isomer, unassigned) [Example 209, (7R,14R)-1-(difluoromethoxy)-11-((S or R)-3-hydroxypent-1-yn-1-yl)-6-(methyl-d3)-6,7-dihydro-7,14-methanobenzo[f]benzo[4,5]imidazo[1,2-a][1,4]diazocin-5(14H)-one] |
| 4.52 to 5.00 | [2H]C([2H])([2H])N1C(=O)c2cccc(OC(F)F)c2[C@H]2C[C@@H]1c1nc3ccc(C#CC(N)CC(C)(C)O)cc3n12 (single isomer, unassigned) [Example 216, (7R,14R)-11-((S or R)-3-amino-5-hydroxy-5-methylhex-1-yn-1-yl)-1-(difluoromethoxy)-6-(methyl-d3)-6,7-dihydro-7,14-methanobenzo[f]benzo[4,5]imidazo[1,2-a][1,4]diazocin-5(14H)-one] |
| 4.52 to 5.00 | [2H]C([2H])([2H])N1C(=O)c2cccc(OC(F)F)c2[C@H]2C[C@@H]1c1nc3ccc(C#CC(N)CC(C)(C)O)cc3n12 (single isomer, unassigned) [Example 217, (7R,14R)-11-((R or S)-3-amino-5-hydroxy-5-methylhex-1-yn-1-yl)-1-(difluoromethoxy)-6-(methyl-d3)-6,7-dihydro-7,14-methanobenzo[f]benzo[4,5]imidazo[1,2-a][1,4]diazocin-5(14H)-one] |
| 6.00 to 7.00 | [2H]C([2H])([2H])N1C(=O)c2cccc(OC(F)F)c2[C@H]2C[C@@H]1c1nc3ccc(C#CC(O)CC(C)(C)O)cc3n12 (single isomer, unassigned) [Example 221, (7R,14R)-1-(difluoromethoxy)-11-((S or R)-3,5-dihydroxy-5-methylhex-1-yn-1-yl)-6-(methyl-d3)-6,7-dihydro-7,14-methanobenzo[f]benzo[4,5]imidazo[1,2-a][1,4]diazocin-5(14H)-one] |
| > 7.00 | [2H]C([2H])([2H])N1C(=O)c2cccc(OC(F)F)c2[C@H]2C[C@@H]1c1nc3ccc(C#CC(O)CC(C)(C)O)cc3n12 (single isomer, unassigned) [Example 222, (7R,14R)-1-(difluoromethoxy)-11-((R or S)-3,5-dihydroxy-5-methylhex-1-yn-1-yl)-6-(methyl-d3)-6,7-dihydro-7,14-methanobenzo[f]benzo[4,5]imidazo[1,2-a][1,4]diazocin-5(14H)-one] |
| > 7.00 | [2H]C([2H])([2H])N1C(=O)c2cccc(OC(F)F)c2[C@H]2C[C@@H]1c1nc3ccc(C#CC(C)CCO)cc3n12 (single isomer, unassigned) [Example 239, (7R,14R)-1-(difluoromethoxy)-11-((S or R)-5-hydroxy-3-methylpent-1-yn-1-yl)-6-(methyl-d3)-6,7-dihydro-7,14-methanobenzo[f]benzo[4,5]imidazo[1,2-a][1,4]diazocin-5(14H)-one] |
| > 7.00 | [2H]C([2H])([2H])N1C(=O)c2cccc(OC(F)F)c2[C@H]2C[C@@H]1c1nc3ccc(C#CC(C)CCO)cc3n12 (single isomer, unassigned) [Example 240, (7R,14R)-1-(difluoromethoxy)-11-((R or S)-5-hydroxy-3-methylpent-1-yn-1-yl)-6-(methyl-d3)-6,7-dihydro-7,14-methanobenzo[f]benzo[4,5]imidazo[1,2-a][1,4]diazocin-5(14H)-one] |
| > 7.00 | [2H]C([2H])([2H])N1C(=O)c2cccc(OC(F)F)c2[C@H]2C[C@@H]1c1nc3ccc(C#CCC(O)C(C)O)cc3n12 (single isomer, unassigned) [Example 243, (7R,14R)-1-(difluoromethoxy)-11-((4R or 4S,5S or 5R)-4,5-dihydroxyhex-1-yn-1-yl)-6-(methyl-d3)-6,7-dihydro-7,14-methanobenzo[f]benzo[4,5]imidazo[1,2-a][1,4]diazocin-5(14H)-one] |
| > 7.00 | [2H]C([2H])([2H])N1C(=O)c2cccc(OC(F)F)c2[C@H]2C[C@@H]1c1nc3ccc(C#CCC(O)C(C)O)cc3n12 (single isomer, unassigned) [Example 244, (7R,14R)-1-(difluoromethoxy)-11-((4S or 4S,5R or 5S)-4,5-dihydroxyhex-1-yn-1-yl)-6-(methyl-d3)-6,7-dihydro-7,14-methanobenzo[f]benzo[4,5]imidazo[1,2-a][1,4]diazocin-5(14H)-one] |
| > 7.00 | [2H]C([2H])([2H])N1C(=O)c2cccc(OC(F)F)c2[C@H]2C[C@@H]1c1nc3ccc(C#CCC(O)C(C)O)cc3n12 (single isomer, unassigned) [Example 245, (7R,14R)-1-(difluoromethoxy)-11-((4S or 4R,5S or 5R)-4,5-dihydroxyhex-1-yn-1-yl)-6-(methyl-d3)-6,7-dihydro-7,14-methanobenzo[f]benzo[4,5]imidazo[1,2-a][1,4]diazocin-5(14H)-one] |
| > 7.00 | [2H]C([2H])([2H])N1C(=O)c2cccc(OC(F)F)c2[C@H]2C[C@@H]1c1nc3ccc(C#CCC(O)C(C)O)cc3n12 (single isomer, unassigned) [Example 246, (7R,14R)-1-(difluoromethoxy)-11-((4R or 4S,5R or 5S)-4,5-dihydroxyhex-1-yn-1-yl)-6-(methyl-d3)-6,7-dihydro-7,14-methanobenzo[f]benzo[4,5]imidazo[1,2-a][1,4]diazocin-5(14H)-one] |
| > 7.00 | CC1C(C#Cc2ccc3nc4n(c3c2)[C@@H]2C[C@H]4N(C)C(=O)c3cccc(OC(F)F)c32)CN1C1COC1 (single isomer, unassigned) [Example 257, (7R,14R)-1-(difluoromethoxy)-6-(methyl-d3)-11-(((2S or 2R)-2-methyl-1-(oxetan-3-yl)azetidin-3-yl)ethynyl)-6,7-dihydro-7,14-methanobenzo[f]benzo[4,5]imidazo[1,2-a][1,4]diazocin-5(14H)-one] |
